Experimental data reported in patent US12678434B2, “Compositions and methods for modulating ACE2 receptor” (priority 2020, dated 2026).
“Also recorded” adds a separate entry of the source.

How the values were obtained:
SARS-CoV-2 = experiment: Medication use in COVID-19 positive and negative patients (retrospective propensity-score-matched study of hospitalized patients); type: in vivo, human; settings: for SARS-CoV-2 Positive Test Result, percentage of patients (infection rate): drug use group of PS-matched sample, hospitalized patients Jan. 1, 2020 to Dec. 30, 2020; for difference in SARS-CoV-2 infection rates between drug use and no drug use: PS-matched groups, significance defined as p<0.05
Human recombinant ACE2 = target: T1, Human recombinant ACE2 (Homo sapiens, UniProt Q9BYF1); type: biochemical
T1 construct: purchased R&D systems, Minneapolis, USA

VERO-E6 cells = type: cell-based, monkey; settings: 100 μM drug for 6 hours without FBS, then spike protein (30 ug) for 12 hours
[1] = SARS-CoV-2 positive patients, drug use group, PS-matched
[2] = patients who tested positive in PS-matched sample

T1 sequence (Q9BYF1 18-740 limits assumed): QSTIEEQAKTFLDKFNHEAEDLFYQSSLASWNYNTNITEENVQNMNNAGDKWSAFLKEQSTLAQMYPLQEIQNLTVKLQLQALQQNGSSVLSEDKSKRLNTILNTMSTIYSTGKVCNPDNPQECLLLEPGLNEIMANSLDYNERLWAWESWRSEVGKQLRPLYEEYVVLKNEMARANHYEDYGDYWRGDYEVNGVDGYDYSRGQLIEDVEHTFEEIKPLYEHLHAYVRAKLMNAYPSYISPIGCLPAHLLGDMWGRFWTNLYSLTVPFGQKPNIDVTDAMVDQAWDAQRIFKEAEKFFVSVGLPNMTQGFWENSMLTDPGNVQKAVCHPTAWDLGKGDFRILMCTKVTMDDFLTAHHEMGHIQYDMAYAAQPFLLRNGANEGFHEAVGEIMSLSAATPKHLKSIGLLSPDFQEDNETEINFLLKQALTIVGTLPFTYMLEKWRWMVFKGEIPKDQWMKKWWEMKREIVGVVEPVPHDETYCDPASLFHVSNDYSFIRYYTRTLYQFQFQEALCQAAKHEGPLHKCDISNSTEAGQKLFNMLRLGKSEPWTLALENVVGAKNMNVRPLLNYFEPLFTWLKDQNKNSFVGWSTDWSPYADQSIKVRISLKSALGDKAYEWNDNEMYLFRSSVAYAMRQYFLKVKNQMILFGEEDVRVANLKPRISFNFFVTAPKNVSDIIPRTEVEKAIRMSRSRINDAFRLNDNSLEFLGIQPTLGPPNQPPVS

CN1CCCC(n2nc(Cc3ccc(Cl)cc3)c3ccccc3c2=O)CC1 (centres unmarked) [Azelastine]
SARS-CoV-2 Positive Test Result, percentage of patients (infection rate) (SARS-CoV-2): 7.69%

CN(C)CCC(c1ccc(Br)cc1)c1ccccn1 (centres unmarked) [Brompheniramine]
SARS-CoV-2 Positive Test Result, percentage of patients (infection rate) (SARS-CoV-2): 33.33%

O=C(O)COCCN1CCN(C(c2ccccc2)c2ccc(Cl)cc2)CC1 (centres unmarked) [Cetirizine]
SARS-CoV-2 Positive Test Result, percentage of patients (infection rate) (SARS-CoV-2): 17.97%

CN(C)CCC(c1ccc(Cl)cc1)c1ccccn1 (centres unmarked) [Chlorpheniramine]
SARS-CoV-2 Positive Test Result, percentage of patients (infection rate) (SARS-CoV-2): 16.67%

CN/C(=N/CCSCc1nc[nH]c1C)NC#N [Cimetidine]
SARS-CoV-2 Positive Test Result, percentage of patients (infection rate) (SARS-CoV-2): 35.71%

CN(C)CCOC(c1ccccc1)c1ccccc1 [Diphenhydramine]
SARS-CoV-2 Positive Test Result, percentage of patients (infection rate) (SARS-CoV-2): 12.8% | concentration at transition point from inhibiting to activating the ACE2 receptor (Human recombinant ACE2): 1 µM | spike protein in the cell lysate (western blot) (VERO-E6 cells): no spike protein

NC(N)=Nc1nc(CSCCC(N)=NS(N)(=O)=O)cs1 [Famotidine]
SARS-CoV-2 Positive Test Result, percentage of patients (infection rate) (SARS-CoV-2): 18.87%

CC(C)(C(=O)O)c1ccc(C(O)CCCN2CCC(C(O)(c3ccccc3)c3ccccc3)CC2)cc1 (centres unmarked) [Fexofenadine]
SARS-CoV-2 Positive Test Result, percentage of patients (infection rate) (SARS-CoV-2): 18.92%

OCCOCCN1CCN(C(c2ccccc2)c2ccc(Cl)cc2)CC1 (centres unmarked) [Hydroxyzine]
difference in SARS-CoV-2 infection rates between drug use and no drug use (SARS-CoV-2): statistically significantly different | difference in SARS-CoV-2 infection rates between drug use and no drug use (SARS-CoV-2; listed as hydroxyzine): significant difference; also recorded: lower infection rates | ICU Admission, number of patients (SARS-CoV-2; [1]): 5 | ICU Admission, percentage of patients (SARS-CoV-2; [1]): 19.23% | ICU LOS (length of stay), mean (standard deviation) (SARS-CoV-2; [1]): 22.4 (26.43) | SARS-CoV-2 Positive Test Result, percentage of patients (infection rate) (SARS-CoV-2): 12.62% | Odds Ratio for SARS-CoV-2 infection (SARS-CoV-2; multiple logistic regression model, drug use as covariate, PS-matched sample): 0.919 | difference in ICU admission rates between drug use and no drug use (SARS-CoV-2; [2]): not a significant difference | difference in ICU length of stay between drug use and no drug use (SARS-CoV-2; [2]): not a significant difference | fluorescence signal (ACE2 activity) upon further addition of drug (Human recombinant ACE2): increased | spike protein in the cell lysate (western blot) (VERO-E6 cells): no spike protein

CN1CCC(=C2c3ccccc3CC(=O)c3sccc32)CC1 [Ketotifen]
SARS-CoV-2 Positive Test Result, percentage of patients (infection rate) (SARS-CoV-2): 0 (0%)

O=C(O)COCCN1CCN([C@H](c2ccccc2)c2ccc(Cl)cc2)CC1 [Levocetirizine, levocetirizine]
SARS-CoV-2 Positive Test Result, percentage of patients (infection rate) (SARS-CoV-2): 15.38% | fluorescence signal (ACE2 activity) upon further addition of drug (Human recombinant ACE2): further decreased | spike protein in the cell lysate (western blot) (VERO-E6 cells): no spike protein

CCOC(=O)N1CCC(=C2c3ccc(Cl)cc3CCc3cccnc32)CC1 [Loratadine]
SARS-CoV-2 Positive Test Result, percentage of patients (infection rate) (SARS-CoV-2): 18.65%

CN(C)CC/C=C1/c2ccccc2COc2ccc(CC(=O)O)cc21 [Olopatadine]
SARS-CoV-2 Positive Test Result, percentage of patients (infection rate) (SARS-CoV-2): 18.75%

CN1CCC[C@@H](n2nc(Cc3ccc(Cl)cc3)c3ccccc3c2=O)CC1 [R-Azelastine]
concentration at transition point from inhibiting to activating the ACE2 receptor (Human recombinant ACE2): 1 µM | spike protein in the cell lysate (western blot) (VERO-E6 cells): no spike protein

CNC(=C[N+](=O)[O-])NCCSCc1ccc(CN(C)C)o1 [Ranitidine]
SARS-CoV-2 Positive Test Result, percentage of patients (infection rate) (SARS-CoV-2): 15.29%

CN1CCC[C@H](n2nc(Cc3ccc(Cl)cc3)c3ccccc3c2=O)CC1 [S-Azelastine]
concentration at transition point from inhibiting to activating the ACE2 receptor (Human recombinant ACE2): 1 µM

O=C(O)COCCN1CCN([C@@H](c2ccccc2)c2ccc(Cl)cc2)CC1 [S-Cetirizine, dextrocetirizine]
fluorescence signal (ACE2 activity) upon further addition of drug (Human recombinant ACE2): further decreased
